For assay [1], the system named is NK cells incubated with K562 cells. Description: p38 inhibitors on AZ-induced PD-L1, CD107α and IFN-γ expression of NK cells. The assay is classed as cell-based, human. As to conditions: presence of K562 tumor cells, 1 μM inhibitor; for AZ-induced PD-L1 expression: FIG. 6H; for AZ-induced CD107α expression of NK cells / AZ-induced IFN-γ expression of NK cells: FIG. 6J. Here is the method:
(§1) FIGS. 6A-6J present data showing signaling pathways activating PD-L1^+ NK cells. […] “D1+” represents PD-L1^+ NK cells from donor 1, while “D1−” represents PD-L1^− NK cells from donor 1, each purified by FACS sorting. Similar definitions are applied to “D2+”, “D2−”, “D3+”, and “D3−”. Expression of Cd274 (PD-L1), Cd226, Tbx21, Eomes, Smad3 and Aka are highlighted by black arrows. […] The percentages of PD-L1+ NK cells were measured by flow cytometry. […] Data were generated from five (5) independent donors, and the experiment was repeated three times. […] Relative promoter activity was measured by luciferase assay after 48 hours. […] The experiments were repeated three times. […] The experiments were repeated three times.
Two paired groups were compared by paired t-test. One-way ANOVA with repeated measures or linear mixed model was used to compare three (3) or more donor-matched groups. P values were adjusted by the Holm-Sidak method.
(§2) Cells were suspended in 100 μl PBS with 2% FBS and incubated with the indicated mAb (Table 2) at room temperature for 20 mins. After washing with 2% FBS for one time and PBS for another time, cells were fixed in 1% paraformaldehyde buffer for immediate analysis by flow cytometry using a LSRII flow cytometer (BD Biosciences). Cells used for sorting were re-suspended in RPMI 1640 containing 10% FBS. For intracellular flow cytometry, cells were permeabilized and fixed using the Foxp3/Transcription Factor Fixation/Permeabilization kit (eBioscience, Cat #00-5523-00). Data were analyzed by FlowJo software.

Assay [2] deals with PD-L1 expression on NK cells. The experiment in a line: PD-L1 expression on NK cells incubated with K562 cells in the presence of pathway inhibitors. The assay is classed as cell-based, human. As to conditions: inhibitor 1 μM or 10 μM, FIGS. 6B, 6C. Here is the method:
as §1
To investigate mechanisms by which PD-L1 is induced in NK cells by myeloid leukemia cells, an RNA microarray was performed to profile gene expression in PD-L1^+ NK cells vs PD-L1^− NK cells, both of which were FACS-purified from bulk NK cells after being co-cultured with K562 cells. […] They were subsequently incubated with K562 myeloid leukemia cells and then PD-L1 expression on NK cells was measured. […] A PD-L1 promoter was cloned 2.1 kb upstream of the transcription start site, co-transfected with genes for specific transcription factors in 293T cells, and the activity of the PD-L1 promoter was measured by luciferase assay. […]

Assay [3] has as its system p38, p-ERK, p-AKT, p-mTOR in NK cells. The experiment in a line: Downstream kinase phosphorylation in NK cells after AZ (intracellular flow cytometry, immunoblot). As to conditions: NK cells with K562 cells, AZ treatment. The assay is classed as cell-based, human. How it is done:
as §1
FIG. 13 presents data showing induction of p38-NF-κB signaling in primary human NK cells by the anti-PD-L1 antibody AZ. […] The histograms provided in the upper panel represent quantification of various phosphorylated kinases expressed in NK cells, followed by a graphical summary of the data (n=3) below each histogram. One-way ANOVA with repeated measures or linear mixed model was used to compare three (3) or more donor-matched groups and P values were adjusted by the Holm-Sidak method. ****, P<0.0001; NS=not significant.
as §2
Cells were pelleted and lysed in protein extraction reagent (Thermo Fisher, Cat. #78510) supplied with proteinase inhibitors. Standard procedures were used for immunoblotting. Primary antibodies used were PD-L1 (Cell Signaling Technology, Cat. #13684), GAPDH (Cell Signaling Technology, Cat. #2118), β-actin (Cell Signaling Technology, Cat. #4967), p-p38 (Cell Signaling Technology, Cat. #9211) and p-AKT (Cell Signaling Technology, Cat. #9271). Proteins were detected using goat anti-rabbit HRP-conjugated secondary antibodies (Cell Signaling Technology, Cat. #7074).
On the technique in general: A flow cytometer gives signals particle by particle.

In assay [4] the test system is PD-L1 expression on expanded human primary NK cells. Description: PD-L1 expression on expanded human primary NK cells with AZ. In kind it is cell-based. The note with it: expanded 7 days with K562 feeder cells, with or without 5 ng/ml IL-12 and IL-18 for 20 h; FIG. 15. Here is the method: Expanded human primary NK cells for 7 days with indicated medium (R10: RPMI1640+10% FBS; MACS: MACS medium+5% human serum; SCGM: SCGM medium+5% human serum) were treated with or without 5 ng/ml IL-12 and IL-18 for 20 h in the presence of AZ or not. The expression of PD-L1 were examined by flow cytometry. P values of multiple comparison were analyzed using one-way ANOVA. Multiple comparison test was adjusted by Holm-Sidak method. ****, P<0.0001.
Expanded human primary NK cells for 7 days with indicated medium (R10: RPMI1640+10% FBS; MACS: MACS medium+5% human serum; SCGM: SCGM medium+5% human serum) were treated with or without 5 ng/ml IL-12 and IL-18 for 20 h in the presence of AZ or not. The expression of PD-L1 were examined by flow cytometry (FIG. 15). PBMC from lung cancer patients were isolated and examined for PD-L1 expression by flow cytometry (FIG. 16).

Assay [5] deals with PD-L1+ NK cells. Description: NK cell CD107α and IFN-γ expression after AZ treatment (flow cytometry). The assay is classed as cell-based, human. How it is done: (§3) FIGS. 3A-3D present data showing that anti-PD-L1 monoclonal antibody atezolizumab (AZ) activates PD-L1 signaling in NK cells and enhances NK cell function. […] The P values were corrected for multiple comparisons by Holm's method. […] The experiment was repeated three times with three different donors. […] NK cells were sorted and the relative levels of PD-L1 mRNA expression were measured by qRT-PCR. The experiment was repeated three times. […] Two paired groups were compared by paired t-test. One-way ANOVA with repeated measures or linear mixed model was used to compare three (3) or more donor-matched groups. P values were adjusted by the Holm-Sidak method.
Peripheral blood samples from healthy donors were obtained from The American Red Cross. Human PBMCs were isolated by Percoll density gradient centrifugation. Primary human NK cells were enriched from the peripheral blood of healthy donors using an NK Cell Enrichment Kit (Miltenyi Biotec, Cat #0.130-115-818). Enriched NK cells with purity about 90% were either sorted by fluorescence-activated cell sorting (FACS) to the purity around 96% and then used or used immediately for in vitro cell culture experiments. […] All cell lines were maintained in RPMI 1640 medium supplemented with 10% FBS and 100 U/ml penicillin/streptomycin. For co-culture stimulation experiments, PBMCs, enriched NK cells, or FACS-sorted NK cells were co-incubated with various cell lines including K562, MOLM-13, AML3, RPMI 8226 or MV-4-11 at an effector/target (E/T) ratio of 10:1. […] For transwell assay experiments, 5×10^5 enriched human primary NK cells were seeded in the upper chamber of a transwell plate. The lower chamber of the transwell plate was seeded with 5×10^4 K562 myeloid leukemia cells. The transwell plate with cells was incubated at 37° C. for 20 hr.
Cells were suspended in 100 μl PBS with 2% FBS and incubated with the indicated mAb (Table 2) at room temperature for 20 mins. […] Data were analyzed by FlowJo software.

Assay [6] relates to PD-L1-KO K562 myeloid leukemia cells. The experiment in a line: NSG mouse model with human primary NK cells and PD-L1-KO K562 cells. In kind it is in vivo, NSG mice. From the text:
After 6 days, mice were sacrificed and NK cells were isolated and assessed for PD-L1 expression by flow cytometry. […] PBS instead of IgG1 was used as placebo because AZ lacks antibody-dependent cellular cytotoxicity activity. After 6 days (three treatments), mice were sacrificed and human NK cells were examined for their expression of granzyme B, CD107α, and IFN-γ, while the number of PD-L1-knockout K562 myeloid leukemia cells (as shown in FIG. 5C) was enumerated by flow cytometry. […] Two paired groups were compared by paired t-test. One-way ANOVA with repeated measures or linear mixed model was used to compare three (3) or more donor-matched groups. P values were adjusted by the Holm-Sidak method. Kaplan-Meier method was used to estimate survival functions and log-rank test was applied to group comparisons.
8-week old NSG mice were intravenously (i.v.) injected with PD-L1 knockout K562 myeloid leukemia cells at a concentration of 2 million cells per mouse. […] Mice in the atezolizumab (AZ)-treated or control group were simultaneously i.p-injected with 200 μg AZ in 200 μL PBS or 200 μL PBS per mouse. Cytokines and AZ were injected every other day for a total of […]. The numbers of NK cells and tumor cells were examined at day 6 post injection.

The test system of assay [7] is ADCC. The note with it: Fc domain modification; cited from earlier work.
In assay [8] the test system is PD-L1 expression on NK cells. The experiment in a line: PD-L1 expression of K562-pretreated NK cells after AZ (qRT-PCR, flow cytometry). In kind it is cell-based, human. As to conditions: time dependent. Here is the method: as §3
as §2, with “software. […]” for “software.”
In general terms: Real-time PCR tracks product formation cycle by cycle.

Assay [9] has as its system PD-L1 expression on NK cells. Description: Induction of PD-L1 expression on NK cells by NK cell-activating cytokines. The note with it: alone or in combination with other cytokines, 10 ng/mL, 24 hour; FIG. 11F. The assay is classed as cell-based, human.
Protocol: The cytotoxicity levels of total NK cells incubated with medium alone were served as control. The cytokine-treated bulk NK cells were permeabilized and gated PD-L1+ and PD-L1^− cells to measure the MFI of IFN-γ by flow cytometry assay as shown in FIG. 11D. […] Summary graph (n=3) is shown at the bottom. […] Summary graph (n=3) is shown at the bottom. Two-sample t test was used for 2-group comparisons. One-way ANOVA was used to compare three (3) or more groups and P values were adjusted by the Holm-Sidak method. **, P<0.01; ***, P<0.001; ****, P<0.0001; NS=not significant.
Peripheral blood samples from healthy donors were obtained from The American Red Cross. Human PBMCs were isolated by Percoll density gradient centrifugation. Primary human NK cells were enriched from the peripheral blood of healthy donors using an NK Cell Enrichment Kit (Miltenyi Biotec, Cat #0.130-115-818). Enriched NK cells with purity about 90% were either sorted by fluorescence-activated cell sorting (FACS) to the purity around 96% and then used or used immediately for in vitro cell culture experiments. NK cells were cultured in RPMI 1640 supplemented with 20% FBS, 100 U/ml penicillin/streptomycin, and 10 ng/ml IL-2. […]
Cells were suspended in 100 μl PBS with 2% FBS and incubated with the indicated mAb (Table 2) at room temperature for 20 mins. […] Data were analyzed by FlowJo software. […]
Where [10] appears, read: NK cells stimulated with PD-L1 knock-out K562 cells 20 hours, then 20 μg/mL AZ 4 hours, FIG. 3A.
[11] abbreviates: vs placebo (PBS), i.p. every other day, after 6 days, FIG. 5B.

The source of these data is patent US20220249564A1, “PDL1 POSITIVE NK CELL CANCER TREATMENT” (City of Hope, priority 2019, published 2022).

With `Oc1ccc(-c2nc(-c3ccncc3)c(-c3ccc(F)cc3)[nH]2)cc1` [SB202190], in assay [1], the “AZ-induced PD-L1 expression” value is reported as “reduce”, the “AZ-induced CD107α expression of NK cells” value is reported as “inhibited” and the “AZ-induced IFN-γ expression of NK cells” value is reported as “inhibited”.
Turning to `Cc1ccc(S(=O)(=O)N[C@@H](Cc2ccccc2)C(=O)CCl)cc1` [TPCK], in assay [2], the “PD-L1 expression on NK cells” value is given as “regulation role of p65 in PD-L1 expression was confirmed”.
Turning to `C[S+]([O-])c1ccc(-c2nc(-c3ccncc3)c(-c3ccc(F)cc3)[nH]2)cc1` (stereo not drawn) [SB203580], in assay [1], the “AZ-induced PD-L1 expression” value is recorded as “reduce”, the “AZ-induced CD107α expression of NK cells” value is listed as “inhibited” and the “AZ-induced IFN-γ expression of NK cells” value was “inhibited”.
On to `Cn1ncc(Cl)c1-c1cc(C(=O)N[C@H](CN)Cc2cccc(F)c2)sc1Cl` [afuresertib], for which, in [2], the “PD-L1 expression on NK cells” value is given as “significantly reduced”.
As to atezolizumab [AZ], the “level of p38” value in assay [3] (IL-2 10 ng/mL, FIG. 13, 6G) is “increased”. For the same compound, in assay [3] (FIG. 13), the “level of p-ERK” value is listed as “not increased” and the “level of p-mTOR” value was “not increased”. For the same compound, in assay [3] (FIG. 13, 6G), the “level of p-AKT” value is listed as “not increased”. Besides, the “expression of PD-L1 on expanded human primary NK cells” value in assay [4] is given as “further enhanced”. Besides, in assay [5] (setting [10]), the “expression of CD107a in PD-L1+ NK cells” value was “increased” and the “expression of IFN-γ in PD-L1+ NK cells” value is recorded as “increased”. For the same compound, the “IFN-γ production of PD-L1-transduced NK cells” value in assay [5] (lentiviral PD-L1-transduced NK cells treated with AZ, FIG. 3B) is “even more dramatically increased”. In addition, in assay [6] (setting [11]), the “NK cell expression of CD107α” value is reported as “significant increase”, the “NK cell expression of IFN-γ” value is given as “significant increase” and the “NK cell expression of granzyme B” value was “significant increase”. For the same compound, the “tumor burden (number of PD-L1-KO K562 cells)” value in assay [6] (vs placebo-treated mice, upon sacrifice, FIG. 5C) is “significantly lower”. Also, in assay [7], the ADCC effect entry was “absence”. In addition, in assay [8] (NK cells pretreated with K562, 20 μg/mL AZ, FIG. 3C), the “PD-L1 expression of NK cells, mRNA level” value is listed as “further elevated”. For the same compound, in assay [8] (NK cells pretreated with K562, AZ, FIG. 3D), the “PD-L1 expression of NK cells, protein level” value was “further elevated”.
Turning to “recombinant IFN-γ: recombinant interferon gamma”, the “PD-L1 expression on NK cells” value in [9] is listed as “could not induce”.
